Assay results from patent publication US7091185B2, “Periodic antimicrobial peptides” (Dow Global Technologies Inc., priority 2003, dated 2006).
Like-named read-outs stand apart in the source and are kept apart here. Where no end group is shown, it is not given here.

What was measured:
[1] = tested on: S. aureus (methicillin resistant) ATCC 33591
E. coli ATCC 2592 = conditions: ATCC 2592
P. aeruginosa ATCC 10145 = conditions: ATCC 10145
Red blood cell toxicity = format: cell-based; conditions: red blood cells (RBC)
Red blood cells (RBC) = assay: Red blood cell toxicity; format: cell-based
Cr. Neoformans 32045 = format: cell-based
How it was run: (§1)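 Broth microdilution per NCCLS, adapted for fungi with Sabouraud Dextrose Broth; KFAK-repeat peptide multimers in two-fold dilutions from 1,000 to 1 μg/ml. Growth by OD620 after overnight incubation; IC50 by sigmoidal fit, in duplicate, repeated at least twice.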

C. albicans 10231 = format: cell-based; conditions: 10231
How it was run: as §1

HeLa cell line = assay: HeLa MTS cellular reduction toxicity assay; format: cell-based; conditions: for TX50: 24 h, MTS
Description: The RBC protocol was from Blondelle (2000) and is described generally as follows: The toxicity toward the HeLa cell line was determined using a MTS (3-(4-5-dimethylthiazol-2-yl)-5-(3carboxymethoxyphenyl)-2-(4-sulfophenyl)-2H-tetrazolium, sodium salt) cellular reduction assay. MTS (2 mg/mL) was prepared in Dulbecco PBS (pH 7.35), filtered, aliquoted and stored at minus 20° C. In 96 well flat bottomed plates, cell suspensions (250 μL of 6×10^4 cell/mL in each well) were incubated for 48 h at 37° C. (5% CO2 incubator). The peptides (50 μL) were then added to the cell monolayer (following aspiration of the media from each well and addition of 50 μL of Dulbecco's Modified Eagles Medium) at varying concentrations derived from serial 2-fold dilutions, and the plates incubated for 24 h at 37° C. (5% CO2 incubator). Proliferation was then determined by adding a solution of phenazine methosulfate (PMS: 0.92 mg/mL in DPBS) to MTS at a 1:20 ration just prior to the assay. Twenty microliters MTS-PMS solution were added to each well and the plates incubated for 1 h at 37° C. (5% CO2 incubator). The relative percent toxicity was determined by comparing the absorbance at 490 nm of each peptide to the absorbance of cells without peptide. The TX50 (concentration required for 50% toxicity) was calculated using a sigmoidal curve fitting software (Graphpad Prism).

Staph. aureus ATCC 6538 = assay: HMARQ biocidal kill activity; format: cell-based; conditions: Staph. aureus ATCC 6538 (gram+)
How it was run: (§2)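 Inoculated sample matrix (200–300 μL) added to biocide in 96-well blocks alongside untreated controls; for kill-time runs organisms added after biocide. Viable counts by MPN serial 1:10 dilution in TSB with 50 μM resazurin indicator; values are ppm (μg/mL) giving 3.5 log kill versus untreated at 15 min or 24 h.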

P. aeruginosa ATCC 15442 = assay: HMARQ biocidal kill activity; format: cell-based; conditions: P. aeruginosa ATCC 15442 (gram−)
How it was run: as §2

[2] = RBCs, concentration required for 50% toxicity, read-out: TX50
[3] = S. aureus (methicillin resistant) 33591, gram+

Substance | IC50 ([1]; ATCC 33591) [µg/mL] | MIC ([1]; ATCC 33591) [µg/mL] | IC50 (E. coli ATCC 2592) [µg/mL] | MIC (E. coli ATCC 2592) [µg/mL] | IC50 (P. aeruginosa ATCC 10145) [µg/mL] | MIC (P. aeruginosa ATCC 10145) [µg/mL] | HC50 at 24 h (Red blood cell toxicity; [2]) [µg/mL] | % kill at 250 μg/ml (Red blood cells (RBC)) [%] | IC50 (Cr. Neoformans 32045) [µg/mL] | MIC (Cr. Neoformans 32045) [µg/mL] | IC50 (C. albicans 10231) [µg/mL] | MIC (C. albicans 10231) [µg/mL] | % kill at 500 μg/ml (HeLa cell line) [%] | TX50 (HeLa cell line) [µg/mL] | ppm needed for 3.5 log kill at 15 min (Staph. aureus ATCC 6538) | ppm needed for 3.5 log kill at 24 hr (Staph. aureus ATCC 6538) | ppm needed for 3.5 log kill at 15 min (P. aeruginosa ATCC 15442) [ppm] | ppm needed for 3.5 log kill at 24 hr (P. aeruginosa ATCC 15442) [ppm] | other results
LKLKLKLKLKLKLKLKLK [LK (9), LK LK LK LK LK LK LK LK LK] | 50 | 250 to 500 | 35 | 62 to 125 | 74 | 80 | > 500 | 21 | 4.9 | 32 to 62 | 216 | 250 to 500 | 46.0 | 137 | 16 ppm | 4 ppm | 8 | 8 | –
KFKKFKKFKKFKKFKKFK [KFK (6), KFK KFK KFK KFK KFK KFK] | 322 | >500 | 39 | 62 to 125 | 74 | 125 | > 500 | −7 | 33 | 40 to 62 | 164 | 250 to 500 | 77.8 | >500 | >500 ppm | – | >500 | 125 | –
H-FKAFKAFKAFKAFKAFKAFKAFKA-OH [FKA (8), FKA FKA FKA FKA FKA FKA FKA FKA] | 74 | >500 | 7 | 16 to 32 | 19 | 25 | > 500 | 10 | 3.9 | 16 to 32 | 199 | 250 to 500 | 60.4 | >500 | 8 ppm | 125 ppm | 125 | 16 | –
H-KFKKFKKFKKFKKFKKFKKFKKFKKFKKFK-OH [KFK (10), KFK KFK KFK KFK KFK KFK KEK KFK KFK KFK] | 59 | >250 | 10 | 12 to 16 | 31 | 62 | > 500 | 3 | 30 | 40 to 62 | 104 | 125 to 250 | 56.8 | >500 | 4 ppm | 500 ppm | 8 | 8 | –
LKLKLKLKLKLKLKLKLKLK [LK (10), LK LK LK LK LK LK LK LK LK LK] | 29 | 125 to 250 | 127 | 150 to 250 | 47 | 125 | > 500 | 27 | 3.0 | 62 to 125 | 187 | 250 to 500 | 65.0 | >500 | 16 or less ppm | 16 or less ppm | 8 | – | –
KFKKFKKFKKFKKFKKFKKFK [KFK (7), KFK KFK KFK KFK KFK KFK KFK] | 141 | >500 | 18 | 31 to 62 | 87 | 125 | > 500 | −7 | 26 | 40 to 62 | 175 | 250 to 500 | 80.9 | >500 | >500 ppm | – | >500 | 125 | –
H-FAKKFAKKFAKKFAKKFAKKFAKK-OH [FAKK (6), FAKK FAKK FAKK FAKK FAKK FAKK] | 108 | >250 | 11 | 17 to 32 | 21 | 62 | – | 7 | 7.6 | 16 to 32 | 110 | 125 to 250 | 28.3 | 359 | >500 ppm | 250 ppm | >500 | 16 | HC50 at 24 h (Red blood cell toxicity): > 500 µg/mL
H-LKLKLKLKLKLKLKLK-OH [LK (8), LK LK LK LK LK LK LK LK] | 56 | 125 to 250 | 65 | >125 | 125 | 130 | > 500 | 13 | 9.7 | 32 to 63 | 162 | 250 to 500 | 43.5 | 122 | 31 ppm | 4 ppm | 8 | 16 | –
H-KKAKKKAKKKAKKKAKKKAKKKAKKKAK-OH [KKAK (7), KKAK KKAK KKAK KKAK KKAK KKAK KKAK] | 60 | – | 26 | 31 to 62 | 99 | 125 | > 500 | −6 | 28 | >63 | >500 | >500 | >87.9 | >500 | >500 ppm | 125 ppm | 16 | 16 | –
LRLRLRLRLRLRLR [LR (7), LR LR LR LR LR LR LR] | – | – | 15 | 31 to 62 | 109 | 125 | > 500 | – | 1.8 | 4 to 8 | 182 | 250 to 500 | 86.5 | >500 | 31 ppm | 7.8 ppm | >63 | 4 | IC50 [1, 3]: 90 µg/mL; MIC [1, 3]: 250 to 500 µg/mL; % kill at 250 μg/ml (Red blood cells (RBC); RBCs, 250 μg/ml): 15%
H-KFAKKFAKKFAKKFAKKFAKKFAKKFAKKFAK-OH [KFAK (8), KFAK KFAK KFAK KFAK KFAK KFAK KFAK KFAK] | 40 | 125 to 250 | 12 | 16 to 32 | 19 | 20 | – | 48 | 4.1 | 8 to 16 | 105 | 125 to 250 | 18.2 | 249 | >500 ppm | 8 ppm | 31 | 31 | HC50 at 24 h (Red blood cell toxicity): > 500 µg/mL
